ChEMBL document CHEMBL1201862, “PubChem BioAssay data set” (2004)
Values joined by “and” are separate entries in the source; they are usually repeats but may differ in a detail not shown here. Equal values may be shown once. Active and inactive are the calls of the source.

Columns and labels:
Cytochrome P450 2C9 = Cytochrome P450 2C9 (Homo sapiens, UniProt P11712)
H9c2 = assay: cells; assay type: functional, cell-based; details: Rattus norvegicus, H9c2, Myocardium;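 further: confirmatory concentration-response retest of ultra-high-throughput screening hits for modulation of myocardial damage; cell death induced by hydrogen peroxide oxidative stress; compound pretreatment for 60 min then peroxide exposure for 2 h; potency is for protecting the cells against peroxide damage rather than for killing them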
Cytochrome P450 2D6 = Cytochrome P450 2D6 (Homo sapiens, UniProt P10635);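 further: CYP2D6 member of a cytochrome P450 panel assay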
Cytochrome P450 2C19 = Cytochrome P450 2C19 (Homo sapiens, UniProt P33261); assay: Cytochrome panel assay with activity outcomes. Panel member name: p450-cyp2c19 Compounds with AC50 equal or less than 10 uM are considered active; assay type: functional; details: read-out: AC50
Cytochrome P450 3A4 = Cytochrome P450 3A4 (Homo sapiens, UniProt P08684);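 further: CYP3A4 tested as one member of a cytochrome P450 panel screen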
Cytochrome P450 1A2 = target: T1, Cytochrome P450 1A2 (Homo sapiens, UniProt P05177);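 further: PubChem cytochrome P450 panel assay, CYP1A2 panel member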
T1 sequence (P05177 whole entry): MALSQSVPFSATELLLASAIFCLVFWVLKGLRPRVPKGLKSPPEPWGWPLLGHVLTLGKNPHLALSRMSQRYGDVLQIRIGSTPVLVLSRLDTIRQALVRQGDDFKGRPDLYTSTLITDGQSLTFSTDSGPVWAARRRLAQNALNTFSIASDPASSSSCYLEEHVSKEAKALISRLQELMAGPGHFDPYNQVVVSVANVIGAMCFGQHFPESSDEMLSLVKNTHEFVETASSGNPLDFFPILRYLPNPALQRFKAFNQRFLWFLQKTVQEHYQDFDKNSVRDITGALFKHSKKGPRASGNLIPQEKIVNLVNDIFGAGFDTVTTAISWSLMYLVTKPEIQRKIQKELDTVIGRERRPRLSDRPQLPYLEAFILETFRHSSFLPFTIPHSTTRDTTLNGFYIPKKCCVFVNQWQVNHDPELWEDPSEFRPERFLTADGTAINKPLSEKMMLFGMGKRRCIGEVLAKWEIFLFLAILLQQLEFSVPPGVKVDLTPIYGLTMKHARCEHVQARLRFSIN

[1] = target: T2, Heat shock factor protein 1 (Mus musculus, UniProt P38532); assay: HSF1 potentiators in luciferase reporter cells, confirmation, cell-based, NIH3T3, luminescence, dose retest (AID 435004); assay type: functional;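 further: stress induced by proteasome inhibitor MG132 added 30 min after compound; luciferase reporter driven by HSF1 response element in NIH3T3 cells; actives raise luminescence as potentiators of the MG132 stress response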
T2 sequence (P38532 whole entry): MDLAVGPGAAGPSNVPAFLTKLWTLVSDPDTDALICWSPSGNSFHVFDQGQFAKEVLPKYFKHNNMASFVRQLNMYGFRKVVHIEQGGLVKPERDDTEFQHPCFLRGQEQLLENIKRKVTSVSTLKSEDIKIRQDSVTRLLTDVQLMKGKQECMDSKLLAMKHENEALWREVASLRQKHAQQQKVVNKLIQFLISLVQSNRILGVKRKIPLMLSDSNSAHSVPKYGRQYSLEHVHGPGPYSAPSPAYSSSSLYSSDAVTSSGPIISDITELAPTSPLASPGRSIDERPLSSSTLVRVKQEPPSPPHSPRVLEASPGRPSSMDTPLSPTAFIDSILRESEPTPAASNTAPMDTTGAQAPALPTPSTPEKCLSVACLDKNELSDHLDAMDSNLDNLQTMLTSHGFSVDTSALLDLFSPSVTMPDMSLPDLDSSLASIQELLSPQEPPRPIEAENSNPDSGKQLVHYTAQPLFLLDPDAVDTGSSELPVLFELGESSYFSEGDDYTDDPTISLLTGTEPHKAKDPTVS

[2] = target: FAD-linked sulfhydryl oxidase ALR (Homo sapiens, UniProt P55789); assay: inhibitors of human ALR sulfhydryl oxidase, dose response, biochemical, H2O2 detection, luminescence, cherry-pick (AID 493248)
[3] = target: Luciferin 4-monooxygenase (Photinus pyralis, UniProt P08659); assay: firefly luciferase enzyme inhibitors, dose response, biochemical, luminescence (AID 1891)
[4] = Luminescence Cell-Based Dose Confirmation HTS to Identify Inhibitors of Platelet Dense Granule Release. [Related pubchem assays: 1663 (Primary HTS), 1678 (Summary of Project)]; assay type: functional
[5] = target: T3, Microphthalmia-associated transcription factor (Homo sapiens, UniProt O75030); assay: TRPM1 promoter luciferase signal decrease, dose response, MITF inhibitor project, cell-based, SK-MEL-5, cherry-picked, set 3 (AID 493073); assay type: functional
T3 sequence (O75030 whole entry): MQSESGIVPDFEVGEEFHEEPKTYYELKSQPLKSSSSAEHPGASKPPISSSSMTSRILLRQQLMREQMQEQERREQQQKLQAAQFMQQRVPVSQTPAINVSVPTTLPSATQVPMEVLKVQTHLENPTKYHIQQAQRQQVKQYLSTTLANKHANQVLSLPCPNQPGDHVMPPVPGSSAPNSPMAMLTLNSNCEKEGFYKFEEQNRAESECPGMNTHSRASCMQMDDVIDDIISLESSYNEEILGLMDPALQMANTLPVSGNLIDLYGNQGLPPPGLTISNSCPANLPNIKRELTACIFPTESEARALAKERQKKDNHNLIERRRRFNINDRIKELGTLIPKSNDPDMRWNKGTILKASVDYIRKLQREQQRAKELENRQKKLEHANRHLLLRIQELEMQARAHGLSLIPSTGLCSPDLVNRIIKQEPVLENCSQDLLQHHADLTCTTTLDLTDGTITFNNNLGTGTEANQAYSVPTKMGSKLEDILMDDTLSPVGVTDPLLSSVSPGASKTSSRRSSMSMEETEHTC

Sequence of Cytochrome P450 3A4 (P08684 whole entry): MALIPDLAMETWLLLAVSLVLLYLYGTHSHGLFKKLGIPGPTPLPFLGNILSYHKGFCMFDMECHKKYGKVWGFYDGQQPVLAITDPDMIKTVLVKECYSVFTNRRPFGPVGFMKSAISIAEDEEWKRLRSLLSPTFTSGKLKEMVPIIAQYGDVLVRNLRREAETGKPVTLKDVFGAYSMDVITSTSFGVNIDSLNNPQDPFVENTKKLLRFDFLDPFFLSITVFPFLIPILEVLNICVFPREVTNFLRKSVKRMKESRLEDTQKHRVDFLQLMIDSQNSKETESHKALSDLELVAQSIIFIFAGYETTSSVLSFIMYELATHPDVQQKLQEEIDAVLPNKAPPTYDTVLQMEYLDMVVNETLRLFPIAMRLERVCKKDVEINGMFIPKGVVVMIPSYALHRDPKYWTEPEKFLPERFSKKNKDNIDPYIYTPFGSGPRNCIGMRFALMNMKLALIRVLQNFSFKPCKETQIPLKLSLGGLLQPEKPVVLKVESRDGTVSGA
Sequence of Cytochrome P450 2D6 (P10635 whole entry): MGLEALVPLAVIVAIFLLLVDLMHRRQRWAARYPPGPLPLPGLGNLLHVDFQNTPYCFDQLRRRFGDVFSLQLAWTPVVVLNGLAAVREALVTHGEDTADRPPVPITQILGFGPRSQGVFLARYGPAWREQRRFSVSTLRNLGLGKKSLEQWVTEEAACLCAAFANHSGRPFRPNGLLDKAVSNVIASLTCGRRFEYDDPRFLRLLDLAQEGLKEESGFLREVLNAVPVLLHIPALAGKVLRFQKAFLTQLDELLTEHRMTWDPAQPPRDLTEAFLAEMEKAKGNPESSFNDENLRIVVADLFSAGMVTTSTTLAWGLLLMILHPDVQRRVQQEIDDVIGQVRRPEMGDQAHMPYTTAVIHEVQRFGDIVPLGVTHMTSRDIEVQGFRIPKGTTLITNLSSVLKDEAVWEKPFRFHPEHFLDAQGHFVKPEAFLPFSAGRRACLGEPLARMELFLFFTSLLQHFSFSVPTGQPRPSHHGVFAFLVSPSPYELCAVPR
Sequence of Cytochrome P450 2C9 (P11712 whole entry): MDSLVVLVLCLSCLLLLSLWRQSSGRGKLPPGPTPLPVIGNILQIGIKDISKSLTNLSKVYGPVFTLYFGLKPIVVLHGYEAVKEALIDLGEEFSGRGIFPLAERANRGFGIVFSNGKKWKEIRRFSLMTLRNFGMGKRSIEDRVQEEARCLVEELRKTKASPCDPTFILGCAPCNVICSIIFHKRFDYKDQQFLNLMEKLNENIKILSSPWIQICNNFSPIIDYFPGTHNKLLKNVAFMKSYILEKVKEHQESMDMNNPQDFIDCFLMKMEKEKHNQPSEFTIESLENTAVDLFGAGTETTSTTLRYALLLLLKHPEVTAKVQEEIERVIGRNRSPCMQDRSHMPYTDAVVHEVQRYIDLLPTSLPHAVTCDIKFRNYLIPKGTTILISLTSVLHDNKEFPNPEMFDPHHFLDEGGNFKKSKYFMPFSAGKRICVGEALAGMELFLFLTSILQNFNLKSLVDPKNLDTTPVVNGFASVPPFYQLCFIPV
Sequence of Cytochrome P450 2C19 (P33261 whole entry): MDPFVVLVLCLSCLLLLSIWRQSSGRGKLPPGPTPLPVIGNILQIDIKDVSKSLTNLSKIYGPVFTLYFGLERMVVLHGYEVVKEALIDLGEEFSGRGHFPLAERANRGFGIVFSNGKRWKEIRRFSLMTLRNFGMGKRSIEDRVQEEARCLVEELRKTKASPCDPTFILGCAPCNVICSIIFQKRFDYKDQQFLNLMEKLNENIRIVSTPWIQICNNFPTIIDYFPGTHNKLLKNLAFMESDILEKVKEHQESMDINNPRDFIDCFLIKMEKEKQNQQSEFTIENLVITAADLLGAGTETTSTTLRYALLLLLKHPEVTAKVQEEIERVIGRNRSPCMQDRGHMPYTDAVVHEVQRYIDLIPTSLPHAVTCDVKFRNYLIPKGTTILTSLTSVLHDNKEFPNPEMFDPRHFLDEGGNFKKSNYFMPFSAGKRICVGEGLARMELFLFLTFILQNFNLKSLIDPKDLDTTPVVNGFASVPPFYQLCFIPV
Sequence of Luciferin 4-monooxygenase (P08659 whole entry): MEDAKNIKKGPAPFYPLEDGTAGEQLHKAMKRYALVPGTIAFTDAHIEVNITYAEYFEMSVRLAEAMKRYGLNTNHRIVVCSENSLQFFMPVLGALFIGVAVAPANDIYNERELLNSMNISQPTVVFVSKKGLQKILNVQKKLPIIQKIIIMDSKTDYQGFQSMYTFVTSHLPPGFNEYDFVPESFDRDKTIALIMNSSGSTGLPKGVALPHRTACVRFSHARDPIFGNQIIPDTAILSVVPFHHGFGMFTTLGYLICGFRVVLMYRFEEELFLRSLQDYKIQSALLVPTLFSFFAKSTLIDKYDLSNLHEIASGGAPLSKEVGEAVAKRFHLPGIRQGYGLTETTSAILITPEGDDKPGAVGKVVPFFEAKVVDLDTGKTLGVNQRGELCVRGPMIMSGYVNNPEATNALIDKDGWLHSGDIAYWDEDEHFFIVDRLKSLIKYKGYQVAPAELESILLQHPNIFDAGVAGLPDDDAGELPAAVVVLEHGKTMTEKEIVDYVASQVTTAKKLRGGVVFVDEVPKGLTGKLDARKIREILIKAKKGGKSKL
Sequence of FAD-linked sulfhydryl oxidase ALR (P55789 whole entry): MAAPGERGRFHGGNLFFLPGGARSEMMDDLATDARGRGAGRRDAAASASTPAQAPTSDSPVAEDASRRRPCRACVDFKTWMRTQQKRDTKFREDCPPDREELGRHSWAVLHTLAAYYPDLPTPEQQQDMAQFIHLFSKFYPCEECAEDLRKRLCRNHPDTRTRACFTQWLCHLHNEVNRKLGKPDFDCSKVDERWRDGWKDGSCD

In the case of O=C(Nc1ccc(Cl)cc1)NC1CCCCC1, the AC50 (Cytochrome P450 2C9) is reported as 12.6 µM (inconclusive).

For COc1cccc(Nc2nc3ccccc3n3cnnc23)c1, the IC50 (H9c2) was > 79 µM (inactive).

In the case of COc1cc(CNn2nnnc2N)ccc1OCc1c(Cl)cccc1Cl, the AC50 (Cytochrome P450 2C9) is reported as 25.1 µM (inconclusive).

In the case of COc1ccccc1CNc1cc(-c2ccc(C(=O)N(C)C)cc2)ncn1, the AC50 (Cytochrome P450 2D6) is reported as 12.6 µM (inconclusive).

For COCC(=O)N1CCC2(CC1)CN(C(=O)Nc1ccccc1)C2, the AC50 (Cytochrome P450 2D6) was 39.8 µM (inconclusive).

With CCC/C=C(\CCC)C(NP(=O)(c1ccccc1)c1ccccc1)c1ccc(C(F)(F)F)cc1 (stereo not given) the AC50 (Cytochrome P450 2C9) was 12.6 µM (inconclusive) and the AC50 (Cytochrome P450 2C19) was 39.8 µM (inconclusive).

For COc1ccc(CCN(C)CCc2ccc(OC)c(OC)c2)cc1OC, the AC50 (Cytochrome P450 2D6) was 31.6 µM (inconclusive) and 12.6 µM (inconclusive) and the AC50 (Cytochrome P450 3A4) was 15.8 µM (inconclusive) and 10 µM (inconclusive).

With O=C(c1ccncc1)N1CCC2(CCCN(c3ccccn3)C2)CC1 the AC50 (Cytochrome P450 2D6) was 25.1 µM (inconclusive).

For O=C(OCc1cc(=O)n2ccsc2n1)c1ccc(O)cc1O, the IC50 (H9c2) was > 79 µM (inactive).

With COc1cccc(Cn2c(=O)cnc3cncnc32)c1 the AC50 (Cytochrome P450 2D6) was 25.1 µM (inconclusive), the AC50 (Cytochrome P450 2C19) was 25.1 µM (inconclusive) and the AC50 (Cytochrome P450 3A4) was 20 µM (inconclusive).

With CCCC[C@@H]1C[C@H]1C(NC(=O)c1ccccc1)c1ccc(Cl)cc1 (stereo not given in full) the AC50 (Cytochrome P450 2D6) was 20 µM (inconclusive) and the AC50 (Cytochrome P450 2C9) was 2.51 µM (inconclusive).

With Brc1ccc(CSc2ccc3nnc(-c4cccnc4)n3n2)cc1 the IC50 (H9c2) was > 79 µM (inactive).

With COc1cccc(Cn2c(=O)c(-c3ccc(F)cc3)nc3cnc(N4CCNCC4)nc32)c1 the AC50 (Cytochrome P450 2D6) was 25.1 µM (inconclusive), the AC50 (Cytochrome P450 2C19) was 39.8 µM (inconclusive) and the AC50 (Cytochrome P450 1A2) was 25.1 µM (inconclusive).

With CN(C)c1ncc2ncc(=O)n(Cc3ccc(F)cc3)c2n1 the AC50 (Cytochrome P450 2D6) was 12.6 µM (inconclusive).

In the case of COc1ccc(Oc2ncc3nc(-c4ccc(OC)cc4)c(=O)n(Cc4cccs4)c3n2)cc1, the AC50 (Cytochrome P450 2C9) is reported as 3.16 µM (inconclusive), the AC50 (Cytochrome P450 1A2) is reported as 15.8 µM (inconclusive) and the AC50 (Cytochrome P450 3A4) is reported as 3.16 µM (inconclusive).

In the case of COC(=O)[C@@]1(Cc2ccc(OC)cc2)[C@H]2c3cc(C(=O)N(C)C)n(Cc4c(CO)ncc(C)c4O)c3C[C@H]2CN1C(=O)c1ccccc1, the AC50 (Cytochrome P450 2D6) is reported as 20 µM (inconclusive) and the AC50 (Cytochrome P450 2C19) is reported as 31.6 µM (inconclusive).

In the case of Fc1cccc(-c2nnn3c2nc(Cl)c2ccccc23)c1, the EC50 [1] is reported as 13.6 µM (inconclusive).

In the case of CC(=O)c1cc(C#N)c(Oc2ccc(F)cc2)nc1C, the AC50 (Cytochrome P450 2C9) is reported as 3.98 µM (inconclusive) and the AC50 (Cytochrome P450 2C19) is reported as 10 µM (inconclusive).

For COc1ccc(S(=O)(=O)N(C)c2ccc(C(=O)NCc3ccccn3)cc2)cc1, the EC50 [1] was > 260 µM (inactive).

In the case of CC(=O)NC1C(OCCOc2ccc(Cl)cc2Cl)OC(COC(C)=O)C(OC(C)=O)C1OC(C)=O (stereo not given), the AC50 (Cytochrome P450 2C9) is reported as 4.47 µM (inconclusive) and the AC50 (Cytochrome P450 2C19) is reported as 15.8 µM (inconclusive).

In the case of Cc1nc2nc(-c3ccc(F)cc3)cn2nc1C, the EC50 [1] is reported as > 260 µM (inconclusive).

In the case of CC1CCCC(C)N1C(=O)COC(=O)c1nnc(O)c2ccccc12 (stereo not given), the IC50 (H9c2) is reported as > 79 µM (inactive).

In the case of CN(CCCNC(=O)C1CCC(=O)N1Cc1ccccc1Cl)c1ccccc1 (stereo not given), the AC50 [2] is reported as 0.398 µM (active) and the AC50 (Cytochrome P450 2D6) is reported as 8.91 µM (inconclusive).

In the case of O=C(OCC(=O)N1CCCCCC1)c1nnc(O)c2ccccc12, the IC50 (H9c2) is reported as > 79 µM (inactive).

For COc1cccc(C(=O)C2=C(O)C(=O)N(c3ccccn3)C2c2ccc(OC)c(OC)c2)c1 (stereo not given), the AC50 (Cytochrome P450 2C9) was 15.8 µM (inconclusive) and the AC50 (Cytochrome P450 3A4) was 17.8 µM (inconclusive).

With CCC(C)C(=O)Nc1ncc2c(n1)CC(c1cccs1)CC2=O (stereo not given) the EC50 [3] was > 112 µM (not active), the EC50 [4] was > 112 µM (not active) and the EC50 [1] was > 260 µM (inactive).

With Cc1ccc(NC(=O)c2sc3ncn(CC(=O)N4CCOCC4)c(=O)c3c2C)c(Br)c1 the EC50 [1] was > 260 µM (inactive).

With CCCCc1c(O)n(-c2ccc(OC)cc2)c(SCC(=O)N2CCOCC2)nc1=O the EC50 [1] was > 260 µM (inactive).

For O=C1CN=C(Nc2ccccc2)N1Cc1cccs1, the AC50 (Cytochrome P450 2D6) was 25.1 µM (inconclusive).

For CNC(=O)NC(=S)NC(=O)c1ccc(OC)cc1, the AC50 (Cytochrome P450 2C9) was 31.6 µM (inconclusive) and the AC50 (Cytochrome P450 3A4) was 31.6 µM (inconclusive).

In the case of O=C(Cc1c(O)c2ccccc2oc1=O)c1ccc(C(F)(F)F)cc1, the EC50 [1] is reported as > 260 µM (inactive).

With c1ccc(N2CCCC3(CCNCC3)C2)nc1 the AC50 (Cytochrome P450 2C9) was 39.8 µM (inconclusive), the AC50 (Cytochrome P450 2C19) was 20 µM (inconclusive) and the AC50 (Cytochrome P450 1A2) was 25.1 µM (inconclusive). For the same molecule, the AC50 (Cytochrome P450 3A4) was 15.8 µM (inconclusive).

In the case of N#CCC(CNc1ncc(C(F)(F)F)cc1Cl)OC(=O)c1ccc(Cl)cc1Cl (stereo not given), the EC50 [1] is reported as 42.6 µM (active).

For COc1ccc(C(=O)COC(=O)Cn2[nH]c(=O)c3ccccc3c2=O)c(OC)c1, the IC50 (H9c2) was 17.5 µM (active).

For O=C1NC2c3c(I)sc(I)c3C(=O)C2O1 (stereo not given), the AC50 [5] was 15.5 µM (active).

With COC(=O)c1cnc2c(c(C)nn2C)c1OC the EC50 [1] was > 260 µM (inactive).

With Fc1cccc(F)c1CN1CCN(c2ccc(Cl)cc2)CC1 the EC50 [1] was > 260 µM (inactive).

With COc1ccccc1C(=O)COC(=O)Cn1[nH]c(=O)c2ccccc2c1=O the IC50 (H9c2) was 18.5 µM (active).

With O=C(N/N=C/c1cn(-c2ccccc2)nc1-c1cccnc1)c1ccccc1 the IC50 (H9c2) was > 79 µM (inactive).

With CCn1c(O)c(/C=N/N=C2CCCC2)c2ccc(C3=NNC(=O)CC3)cc21 the IC50 (H9c2) was > 79 µM (inactive) and the AC50 (Cytochrome P450 3A4) was 7.08 µM (inconclusive).

In the case of O=C(O)CC/C=C\C[C@@H]1CO[C@H](c2ccccc2Cl)O[C@@H]1c1ccccc1O, the AC50 (Cytochrome P450 2D6) is reported as 20 µM (inconclusive), the AC50 (Cytochrome P450 1A2) is reported as 39.8 µM (inconclusive) and the AC50 (Cytochrome P450 3A4) is reported as 15.8 µM (inconclusive).

In the case of COc1ccc(S(=O)(=O)N/N=c2\oc3c(OC)cccc3cc2S(=O)(=O)c2ccc(C)cc2)cc1OC, the EC50 [1] is reported as 67.1 µM (active).

For Cc1c(C(=O)NN2CCOCC2)nn(-c2ccc(Cl)cc2Cl)c1-c1ccc(I)cc1, the AC50 (Cytochrome P450 2D6) was 12.6 µM (inconclusive) and the AC50 (Cytochrome P450 1A2) was 31.6 µM (inconclusive).

With Cc1cc2[nH]c(=O)c3ccccc3n2n1 the IC50 (H9c2) was > 79 µM (inactive).

In the case of C[N+](C)(C)CC[N+]1(C)Cc2c(Cl)c(Cl)c(Cl)c(Cl)c2C1 [CHLORISONDAMINE], the AC50 (Cytochrome P450 2D6) is reported as 15.8 µM (inconclusive) and the AC50 (Cytochrome P450 2C19) is reported as 5.01 µM (inconclusive).
